Measurements taken from patent publication US6340770B1, “Platinum (IV) complex used as anti-cancer agent and preparing method thereof” (Sook Myung Women's University, priority 1999, dated 2002).

Legend:
male ICR mice = assay: Nephrotoxicity test, serologic analysis (BUN, creatinine, uric acid) after i.p. injection; format: in vivo; set-up: unit not given here; conditions: serum, dose 8x IC50 (cisplatin 7x IC50), average ± SD of 5-6 ICR mice
Procedure: In order to serologically analyze nephrotoxicity of various Pt complexes, after injecting each agent intraperitneally, blood was exsanguinated after 6 hours, 1 day, 3 days and 7 days, respectively. Then, serum was seperated f rom the blood to detect the values of BUN (Blood urea nitrogen), creatinine and uric acid.^133)
As an experimental animal, male ICR mice each weighing about 25 g were purchased from Korean Experimental Animal Center. The experimental animals were bred in SPF(Specific Pathogen Free) room in Medical School of HanYang University, and food (purchased from SamYang) and water were supplied unrestrictedly.
The experimental animals were divided into a normal control group, a control group and an experimental group, and the experimental group was again divided into a cisplatin dispensing group, a 7(Ac)Cl treated group, a 7(TF)Cl treated group, a 7(Ac)M treated group, a 7(TF)M treated group and a 7FMN treated group.
Each groups comprised 20-22 mice, and each group was again divided into a 6 hour-treating group, a 1 day-treating group, a 3 day-treating group and a 7 day-treating group, which contains 5-6 mice, respectively.
First, a predetermined amount of agent was dissolved in DMSO or ethanol, and then PBS was added thereto to make the total volume be 6.6 ml. At this time, the content of DMSO or ethanol was controlled to be below 5%.
The agent dissolved in PBS was filtered using 0.2μ syringe filter, sterilized, and injected into intraperitoneally. Then, after 6 hours, 1 day, 3 days and 7 days, exsanguination was performed.
After seperating serum by centrifuging the blood exsanguinated from mice at 4,500 rpm for 15 minutes, the serum was kept at the temperature −20° C. BUN (Blood urea nitrogen), creatinine and uric acid were detected using a biochemical automatic analyzing apparatus (Olympus reply, Japan) and average and standard deviation were calculated from the obtained data.
Control group was dissolved in PBS and injected in dose of 6.6 ml/Kg.

HL60 cells = assay: MTT assay, anti-cancer activity on HL60 cells in vitro; format: cell-based, human; set-up: Cell Growth: unit not given here; conditions: for anti-cancer activity (IC50) compared with cisplatin, in words: HL60 cell; for Cell Growth: HL60, 72 hours; for IC50: MTT, 72 hours, read-out: IC50 in HL60 Cell
Procedure: (§1) In order to examine anti-cancer activity of Pt(IV) complexes according to the present invention, MTT, i.e., [3-(4,5-dimethylthiazol-2-yl)-2,5-diphenyltetrazolium bromide] assay was performed on HL60 and L1210 which are leukemic cell of human and mice, respectively.
(§2) MTT assay is a quantitative color analysis based on that mitochondrial dehydrogenase, one of cell enzymes, changes yellow water-soluble MTT into deep-blue water-insoluble formazan, and the amount of the generated formazan is proportioned to active cell numbers.^122-124)
(§3) HL60 and L1210, suspended leukemic cells of humans and mice, respectively are used as cancer cells for determining the anti-cancer activity of the Pt (IV) complex according to the above Examples. They were obtained by cultivating the frozen cells alloted from Korean Cell Line Bank.
(§4) Cells were subject to subculture at the interval of 2-3 days at 37° C. in the presence of 5% CO2 in RPMI 1640 culture medium controlled to contain 1% penicillin-streptomycin (10,000 unit/ml) and 10% FBS, with keeping the cell number between 2×10^5/ml-5×10^5/ml.
(§5) Pt (IV) complexes prepared by the Examples of the present invention were used as pharmaceutical compounds. Among them, a water-soluble compound was used as it was, and a water-insoluble compound was used after dissolving in DMSO or 95% ethanol, adding PBS to be 2 mM concentarion, filtering with 0.2μ syringe filter to be sterile state and performing serial-dilution with a culture medium to control predetermined concentrations. The final concentration of DMSO or 95% ethanol in cell culture medium was controlled to be below 0.1%.
HL60 and L1210 cells were put into 96-well plate in the amount of 10^4/well and then stabilized for a half hour at 37° C. in the presence of 5% CO2. […]
(§6) After cultivating HL60 cell at 37° C. in the presence of 5% CO2 for 72 hours and L1210 for 48 hours, MTT reagent (2 mg/ml) was added 50 μl/well, and an additional cultivation was performed at 37° C. in the presence of 5% CO2 for 4 hours. Then, after centrifuging the resultant at 2000 rpm for 5 minites, the supernatant was removed by 170 μl/well.
(§7) Then, after adding DMSO 150 μl/well, the resultant was laid at 40° C. for 30 minutes and stirred for 3 minutes. Then, absorption test using ELISA reader was performed at 570 nm.
(§8) For calibration, a blank test was performed on the same 96-well plate under the same condition.
(§9) The above-described experiment was performed on more than 3 wells under the same condition with different concentration, and the same experiment was repeated over 3 times.

[1] = tested on: proximal renal tubule cells; assay: Nephrotoxicity test, electron microscopic findings (TEM) of proximal renal tubule; format: in vivo, mice
Procedure: In order to observe the ultra-structural changes of proximal renal tubule cells, a part of renal cortex of kidney was finely cut in the size of 1 mm^3, pre-fixed with 2% glutaraldehyde-2.5% paraformaldehyde solution, which is prepared with Millonig's phosphate buffer (pH 7.2) at 4° C. for 2-4 hours, and post-fixed with 1% osmium tetroxide for 2 hours, which is diluted with the same buffer solution. Then, after dehydrating the specimen according to ethanol-acetone concentration difference and embeding in Epon 812, it was made to be 2-5 μm thickness in thin section using ultramicrotome and temporarily stained with methylene blue to determine a proper site. Then, it was prepared tobe 60-80 nm thickness of the ultra-thin section, subject to double-staining with uranyl acetate and lead citrate, and observed with TEM (transmission electron microscope; Hitachi-600, Japan).

L1210 cells [2] = assay: MTT assay, anti-cancer activity on L1210 cells in vitro; format: cell-based, mice; set-up: Cell Growth: unit not given here; conditions: for anti-cancer activity (IC50) compared with cisplatin, in words: L1210 cell; for Cell Growth: L1210, 48 hours; for IC50: MTT, 48 hours, read-out: IC50 in L1210 Cell
Procedure: as §1, §2, §3, §4, §5
HL60 and L1210 cells were put into 96-well plate in the amount of 10^4/well and then stabilized for a half hour at 37° C. in the presence of 5% CO2.
as §6, §7, §8, §9

L1210 cells [3] = conditions: literature value (J. Med. Chem. 1994, vol.37, No.10, 1471-1485); cited from earlier work
[4] = 1 Day after single i.p. injection
[5] = 7 Day after single i.p. injection
[6] = 6 hour after single i.p. injection
[7] = 3 day after single i.p. injection

| SMILES | BUN after the 1st time injection (male ICR mice; [4]) | Uric acid after the 1st time injection (male ICR mice; [4]) | BUN after the 1st time injection (male ICR mice; [5]) | Uric acid after the 1st time injection (male ICR mice; [5]) | BUN after the 1st time injection (male ICR mice; [6]) | Uric acid after the 1st time injection (male ICR mice; [6]) | BUN after the 1st time injection (male ICR mice; [7]) | Uric acid after the 1st time injection (male ICR mice; [7]) | anti-cancer activity (IC50) compared with cisplatin, in words (HL60 cells) | anti-cancer activity (IC50) compared with cisplatin, in words (L1210 cells [2]) | IC50 (HL60 cells) [µM] | IC50 (L1210 cells [2]) [µM] | other results |
| --- | --- | --- | --- | --- | --- | --- | --- | --- | --- | --- | --- | --- | --- |
| CC(=O)[O][Pt]1([Cl])([Cl])([O]C(C)=O)[NH]CCCC[NH]1 [7(Ac)Cl, trans, cis-diacetato,dichloro-1,4-butanediamine Pt(IV) complex] | 19.4 ± 3.3 | 1.92 ± 0.4 | 22.1 ± 3.4 | 1.74 ± 0.5 | 29.2 ± 1.8 | 2.18 ± 1.0 | 19.2 ± 2.8 | 1.88 ± 0.6 | superior to that of cisplatin | superior to cisplatin(CDDP) | – | – | nephrotoxicity compared with cisplatin (conclusion from serologic and electron microscopic analysis) ([1]; 7(Ac)Cl 6 mg/kg, 7(TF)Cl 5.3 mg/kg (8 times of IC50), cisplatin 6 mg/kg (7 times of IC50), i.p.): weaker toxicity than cisplatin; ultra-structural changes of proximal renal tubule epithelial cells (TEM) ([1]; one day after i.p. injection): cytoplasmic organelle damages |
| O=C1CC(=O)[O][Pt]2([OH])([OH])([NH]CCCC[NH]2)[O]1 [7(OH)M, trans-dihydroxo,malonato-1,4-butanediamine Pt(IV) complex] | – | – | – | – | – | – | – | – | lower anti-cancer activity than that of cisplatin | lower anti-cancer activity than that of cisplatin | – | – | – |
| O=C1CC(=O)[O][Pt]2([NH]CCCC[NH]2)[O]1 [7 Mal, malonato-1,4-butanediamine Pt(II) complex] | – | – | – | – | – | – | – | – | – | – | 13.8 | 15 | Cell Growth (HL60 cells; 0.01 μM): 92; Cell Growth (HL60 cells; 0.05 μM): 89; Cell Growth (HL60 cells; 0.1 μM): 89; Cell Growth (HL60 cells; 0.5 μM): 82.6; Cell Growth (HL60 cells; 1 μM): 78.8; Cell Growth (HL60 cells; 5 μM): 63.2; Cell Growth (HL60 cells; 10 μM): 57; Cell Growth (HL60 cells; 50 μM): 27; Cell Growth (HL60 cells; 100 μM): 20; Cell Growth (L1210 cells [2]; 0.01 μM): 91; Cell Growth (L1210 cells [2]; 0.05 μM): 95; Cell Growth (L1210 cells [2]; 0.1 μM): 93; Cell Growth (L1210 cells [2]; 0.5 μM): 84.8; Cell Growth (L1210 cells [2]; 1 μM): 80.1; Cell Growth (L1210 cells [2]; 5 μM): 68; Cell Growth (L1210 cells [2]; 10 μM): 55; Cell Growth (L1210 cells [2]; 50 μM): 26.1; Cell Growth (L1210 cells [2]; 100 μM): 20.5 |
| [NH2][Pt]1([NH2])[O]C(=O)C2(CCC2)C(=O)[O]1 [carboplatin, cis-diamine(1,1-cyclobutanedicarboxylato)platinum(II)] | – | – | – | – | – | – | – | – | – | – | – | – | IC50 relative to that of cisplatin (L1210 cells [3]): about 10 times |
| NCCN.[Cl][Pt][Cl] [5 Cl, cis-dichloro,ethylenediamine Pt(II) complex] | – | – | – | – | – | – | – | – | – | – | 11.7 | 11 | – |
| [Cl][Pt]1([Cl])[NH]CCCC[NH]1 [7 Cl, cis-dichloro-1,4-butanediamine Pt(II) complex] | – | – | – | – | – | – | – | – | – | – | 1.83 | 2.01 | – |
| CC(=O)[O][Pt]12([O]C(C)=O)([NH]CCCC[NH]1)[O]C(=O)CC(=O)[O]2 [7(Ac)M, trans-diacetato,malonato-1,4-butanediamine Pt (IV) complex] | 22.0 ± 4.1 | 2.34 ± 1.0 | 21.5 ± 5.1 | 1.52 ± 0.3 | 24.0 ± 6.2 | 2.66 ± 0.7 | 22.4 ± 3.3 | 2.0 ± 1.5 | higher than that of cisplatin | – | – | – | – |
| O=C1CC(=O)[O][Pt]2([O]C(=O)C(F)(F)F)([O]C(=O)C(F)(F)F)([NH]CCCC[NH]2)[O]1 [7(TF)M, trans-ditrifluoroacetato,malonato-1,4-butanediamine Pt(IV) complex] | 23.1 ± 4.8 | 1.8 ± 0.4 | 22.3 ± 1.7 | 1.96 ± 0.3 | 22.1 ± 3.1 | 2.04 ± 0.3 | 22.9 ± 1.7 | 1.82 ± 0.4 | higher than that of cisplatin | – | – | – | – |
| O=C([O][Pt]1([Cl])([Cl])([O]C(=O)C(F)(F)F)[NH]CCCC[NH]1)C(F)(F)F [7(TF)Cl, trans, cis-ditriflioroacetato,dichloro-1,4-butanediamine Pt(IV) complex] | 23.1 ± 3.3 | 1.82 ± 0.5 | 20.7 ± 3.5 | 1.88 ± 0.3 | 28.8 ± 6.4 | 2.2 ± 0.9 | 18.1 ± 2.3 | 2.22 ± 0.7 | superior to that of cisplatin | superior to cisplatin(CDDP) | – | – | ultra-structural changes of proximal renal tubule epithelial cells (TEM) ([1]; sacrificed 6 hours after i.p. injection): seriously damaged findings; ultra-structural changes of proximal renal tubule epithelial cells (TEM) ([1]; sacrificed 3 days after i.p. injection): most of cytoplasmic organelles were damaged |
| N.N.[Cl][Pt][Cl] [CDDP, cis-Diaminedichloroplatinum(II)] | – | – | – | – | – | – | – | – | – | – | 2.74 | – | – |
| [OH][Pt]1([OH])([Cl])([Cl])[NH]CCCC[NH]1 [7(OH)Cl, trans, cis-dihydroxo,dichloro-1,4-butanediamine Pt(IV) complex] | – | – | – | – | – | – | – | – | lower anti-cancer activity than that of cisplatin | lower anti-cancer activity than that of cisplatin | – | – | – |
| [Cl][Pt]1([Cl])[NH]CCC[NH]1 [6 Cl, cis-dichloro-1,3-propanediamine Pt(II) complex] | – | – | – | – | – | – | – | – | – | – | 16.1 | 19.3 | – |
